Experimental findings from US20140005163A1 (NOVARTIS AG, priority 2010, published 2014) are described below.

In assay [1] the target is T1, PI3K alpha (Homo sapiens, UniProt P42336).
T1 construct: p85(iSH2) fusion partner (see partner chain) (N); His tag (C); made in house; host or cells: baculovirus; Tn5 (Trichoplusia ni) or TiniPro insect cells
The experiment in a line: PI3K alpha kinase assay (Kinase-Glo luminescence). It is filed as biochemical. The method in brief:
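Compounds are titrated at 8 concentrations and mixed with PI3Kα protein (EMV B1075, 10 nM) in phosphatidylinositol (10 μg/mL). ATP at 1 μM starts the 60-minute room-temperature reaction, which is stopped with Kinase-Glo before luminescence reading. Four-parameter curve fitting gives IC50.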
(In Kinase-Glo more light means more ATP remaining.)

Assay [2] addresses T2, mTOR (Homo sapiens, UniProt P42345).
T2 construct: purchased Invitrogen Corporation (Carlsbad/CA, USA) PV4753
The experiment in a line: Biochemical assay for m-TOR by TR-FRET. The settings on record: 8 μM ATP, 400 nM GFP-4EBP1, 0.5 nM mTOR. The method in brief:
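mTOR (0.5 nM) was incubated at rt with ATP (8 μM final) and GFP-4EBP1 (400 nM final) in 50 mM HEPES pH 7.5, 10 mM MnCl2, 50 mM NaCl, 1 mM EGTA, 1 mM DTT. EDTA stop with Tb3+-anti-p4EBP1 [pThr46] antibody (0.5 nM); TR-FRET read 15 min later.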

Assay [3] concerns S6 Ribosomal Protein phosphorylation Ser235/236 in TSC1 null mouse embryo fibroblast (MEF) cells. The experiment in a line: Reverse protein array assay, S6 Ribosomal Protein phosphorylation Ser235/236 in TSC1 null MEF cells. It is filed as cell-based. The settings on record: 1 h, pS6 ribosomal protein Ser235/236, 60 minutes incubation, read-out: p-S6 IC50. The method in brief:
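TSC1−/− MEFs, seeded and held ≥20 h at 37 °C/5% CO2, were exposed to 8-step serial compound dilutions (0.02% DMSO final; DMSO vehicle control) for 60 min at 37 °C. Cells were then lysed on ice for 10 min and lysates spotted onto reverse protein array chips.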

For orientation: IC50 means the concentration needed to halve the response being measured.

T1 sequence (P42336 with tags, fused parts or gaps limits assumed): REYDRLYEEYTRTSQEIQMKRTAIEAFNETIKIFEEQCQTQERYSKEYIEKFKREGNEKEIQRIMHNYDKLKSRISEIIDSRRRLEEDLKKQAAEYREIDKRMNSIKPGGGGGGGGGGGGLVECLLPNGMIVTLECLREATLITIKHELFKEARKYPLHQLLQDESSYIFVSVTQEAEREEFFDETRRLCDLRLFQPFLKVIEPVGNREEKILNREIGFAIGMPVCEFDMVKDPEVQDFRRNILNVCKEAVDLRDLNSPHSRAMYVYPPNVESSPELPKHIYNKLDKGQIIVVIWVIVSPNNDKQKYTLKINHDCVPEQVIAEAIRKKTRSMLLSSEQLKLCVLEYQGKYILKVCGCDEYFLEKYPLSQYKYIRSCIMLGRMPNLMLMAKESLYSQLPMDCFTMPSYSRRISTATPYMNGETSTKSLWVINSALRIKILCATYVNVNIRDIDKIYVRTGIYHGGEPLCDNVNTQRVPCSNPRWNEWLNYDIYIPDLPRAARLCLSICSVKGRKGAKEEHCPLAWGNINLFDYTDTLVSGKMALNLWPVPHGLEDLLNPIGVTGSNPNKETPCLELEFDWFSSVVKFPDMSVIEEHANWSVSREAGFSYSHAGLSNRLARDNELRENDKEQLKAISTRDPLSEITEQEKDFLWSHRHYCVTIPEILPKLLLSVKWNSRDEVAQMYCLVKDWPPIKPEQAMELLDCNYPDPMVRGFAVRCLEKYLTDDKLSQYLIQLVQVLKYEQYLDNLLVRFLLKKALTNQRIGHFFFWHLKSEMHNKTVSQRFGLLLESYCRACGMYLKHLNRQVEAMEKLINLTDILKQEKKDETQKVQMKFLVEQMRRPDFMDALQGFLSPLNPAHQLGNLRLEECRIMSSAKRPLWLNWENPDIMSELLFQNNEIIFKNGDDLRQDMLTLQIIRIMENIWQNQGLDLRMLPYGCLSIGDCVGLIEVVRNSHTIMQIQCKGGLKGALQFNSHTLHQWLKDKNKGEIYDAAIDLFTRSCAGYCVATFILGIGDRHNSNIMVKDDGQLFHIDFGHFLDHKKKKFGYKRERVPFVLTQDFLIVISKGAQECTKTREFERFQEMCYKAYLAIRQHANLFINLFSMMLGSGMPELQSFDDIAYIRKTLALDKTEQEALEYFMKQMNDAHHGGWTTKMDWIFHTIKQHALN
T2 sequence (P42345 1360-2549 limits assumed): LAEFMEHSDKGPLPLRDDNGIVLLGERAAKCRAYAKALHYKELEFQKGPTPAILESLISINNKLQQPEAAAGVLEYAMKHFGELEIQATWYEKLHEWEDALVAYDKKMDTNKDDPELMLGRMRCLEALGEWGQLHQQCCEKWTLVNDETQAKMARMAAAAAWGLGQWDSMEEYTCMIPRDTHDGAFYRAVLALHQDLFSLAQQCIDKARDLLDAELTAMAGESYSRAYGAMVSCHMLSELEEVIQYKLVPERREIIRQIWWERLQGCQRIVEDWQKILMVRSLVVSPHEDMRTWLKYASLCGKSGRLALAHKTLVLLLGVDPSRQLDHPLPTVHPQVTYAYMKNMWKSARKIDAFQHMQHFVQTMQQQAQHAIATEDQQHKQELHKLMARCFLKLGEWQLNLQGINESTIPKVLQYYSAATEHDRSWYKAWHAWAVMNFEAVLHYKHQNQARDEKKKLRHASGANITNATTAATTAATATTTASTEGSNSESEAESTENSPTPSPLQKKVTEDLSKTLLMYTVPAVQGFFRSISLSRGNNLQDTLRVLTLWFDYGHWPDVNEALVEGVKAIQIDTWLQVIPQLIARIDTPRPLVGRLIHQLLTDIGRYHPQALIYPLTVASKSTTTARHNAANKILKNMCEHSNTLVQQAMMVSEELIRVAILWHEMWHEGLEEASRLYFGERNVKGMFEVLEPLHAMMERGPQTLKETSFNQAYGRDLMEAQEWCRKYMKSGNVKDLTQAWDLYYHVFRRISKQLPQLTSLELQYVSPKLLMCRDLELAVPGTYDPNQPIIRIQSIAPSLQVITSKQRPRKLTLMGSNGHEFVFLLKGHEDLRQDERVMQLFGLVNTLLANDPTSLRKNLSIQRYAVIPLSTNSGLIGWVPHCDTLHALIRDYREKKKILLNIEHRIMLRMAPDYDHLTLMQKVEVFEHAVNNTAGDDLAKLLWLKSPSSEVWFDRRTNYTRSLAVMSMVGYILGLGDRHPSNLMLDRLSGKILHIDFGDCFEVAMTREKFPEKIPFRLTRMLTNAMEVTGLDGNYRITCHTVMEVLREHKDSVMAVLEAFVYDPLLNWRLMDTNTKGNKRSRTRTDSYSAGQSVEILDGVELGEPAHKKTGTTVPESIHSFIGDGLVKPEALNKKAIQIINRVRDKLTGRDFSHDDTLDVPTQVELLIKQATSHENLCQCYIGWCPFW

Turning to `Cc1nn(C)cc1-n1c(=O)n(C)c2cnc3ccc(-c4ccc(N5CC[C@@H](O)C5)nc4)cc3c21` [Example 212.1, 1-(1,3-Dimethyl-1H-pyrazol-4-yl)-8-[6-((R)-3-hydroxy-pyrrolidin-1-yl)-pyridin-3-yl]-3-methyl-1,3-dihydro-imidazo[4,5-c]quinolin-2-one], the IC50 was 53 nM in assay [1], 72 nM in assay [2] and 7 nM in assay [3].
Taken in the same sequence, the figures for `CCOc1ccc(-c2ccc3ncc4c(c3c2)n(-c2cn(CCO)nc2C)c(=O)n4C)cn1` [Example 103.2, 8-(6-Ethoxy-pyridin-3-yl)-1-[1-(2-hydroxy-ethyl)-3-methyl-1H-pyrazol-4-yl]-3-methyl-1,3-dihydro-imidazo[4,5-c]quinolin-2-one] were 42 nM, 22 nM and 3 nM.
Taken in the same sequence, the figures for `Cc1ncc(-c2ccc3ncc4c(c3c2)n(-c2cn(C)nc2Cl)c(=O)n4C)cc1N` [Example 88.1, 8-(5-Amino-6-methyl-pyridin-3-yl)-1-(3-chloro-1-methyl-1H-pyrazol-4-yl)-3-methyl-1,3-dihydro-imidazo[4,5-c]quinolin-2-one] were 11 nM, 8 nM and 2 nM.
Turning to `Cc1nn(C)cc1-n1c(=O)n(C)c2cnc3ccc(-c4cnc(F)c(N)c4)cc3c21` [Example 149.2, 8-(5-Amino-6-fluoro-pyridin-3-yl)-1-(1,3-dimethyl-1H-pyrazol-4-yl)-3-methyl-1,3-dihydro-imidazo[4,5-c]quinolin-2-one], the concentration for half-maximal inhibition (IC50) in assay [1] was determined as 7 nM; in assay [2] it was 39 nM; in assay [3], 3 nM.
For the compound `Cc1nn(C(C)C)cc1-n1c(=O)n(C)c2cnc3ccc(-c4cnc(F)c(N)c4)cc3c21` [Example 149.1, 8-(5-Amino-6-fluoro-pyridin-3-yl)-1-(1-isopropyl-3-methyl-1H-pyrazol-4-yl)-3-methyl-1,3-dihydro-imidazo[4,5-c]quinolin-2-one], the half-inhibitory concentration (IC50) in assay [1] was 48 nM; in assay [2], 79 nM; in assay [3], 9 nM.
As to `Cc1nn(C)cc1-n1c(=O)n(C)c2cnc3ccc(-c4cnc5c(c4)nc(N(C)C)n5C)cc3c21` [Example 70, 8-(2-Dimethylamino-3-methyl-3H-imidazo[4,5-b]pyridin-6-yl)-1-(1,3-dimethyl-1H-pyrazol-4-yl)-3-methyl-1,3-dihydro-imidazo[4,5-c]quinolin-2-one], the half-maximal inhibitory concentration (IC50) in assay [1] was determined as 375 nM; in assay [2], 81 nM; in assay [3], 16 nM.
The matching figures for `COCCOc1ccc(-c2ccc3ncc4c(c3c2)n(-c2cn(C)nc2C)c(=O)n4C)cc1OC` [Example 30.1, 1-(1,3-Dimethyl-1H-pyrazol-4-yl)-8-[3-methoxy-4-(2-methoxy-ethoxy)-phenyl]-3-methyl-1,3-dihydro-imidazo[4,5-c]quinolin-2-one]: 22 nM, 52 nM and 14 nM.
Taken in the same sequence, the figures for `CCOCc1cc(-c2ccc3ncc4c(c3c2)n(-c2cn(C)nc2C)c(=O)n4C)cnc1N` [Example 166.1, 8-(6-Amino-5-ethoxymethyl-pyridin-3-yl)-1-(1,3-dimethyl-1H-pyrazol-4-yl)-3-methyl-1,3-dihydro-imidazo[4,5-c]quinolin-2-one] were 9 nM, 33 nM and 3 nM.
Taken in the same sequence, the figures for `Cc1nn(C)cc1-n1c(=O)n(C)c2cnc3ccc(-c4cncc(N)c4)cc3c21` [Example 45.1, 8-(5-Amino-pyridin-3-yl)-1-(1,3-dimethyl-1H-pyrazol-4-yl)-3-methyl-1,3-dihydro-imidazo[4,5-c]quinolin-2-one] were 14 nM, 7 nM and 43.5 nM.
For the compound `CCn1cc(-n2c(=O)n(C)c3cnc4ccc(-c5ccc(N(C)C)nc5)cc4c32)c(C)n1` [Example 4.2, 8-(6-Dimethylamino-pyridin-3-yl)-1-(1-ethyl-3-methyl-1H-pyrazol-4-yl)-3-methyl-1,3-dihydro-imidazo[4,5-c]quinolin-2-one], the IC50 in assay [1] worked out at 15 nM; in assay [2], 15 nM; in assay [3], 7 nM.
For `CCNc1cc(-c2ccc3ncc4c(c3c2)n(-c2c(C)nn(CCO)c2C)c(=O)n4C)cnc1C` [Example 210, 8-(5-Ethylamino-6-methyl-pyridin-3-yl)-1-[1-(2-hydroxy-ethyl)-3,5-dimethyl-1H-pyrazol-4-yl]-3-methyl-1,3-dihydro-imidazo[4,5-c]quinolin-2-one], the results for the IC50 in assay [1], in assay [2] and in assay [3] were 24 nM, 40 nM and 32 nM, respectively.
The matching figures for `Cc1nn(C(C)C)cc1-n1c(=O)n(C)c2cnc3ccc(-c4ccc(N5CCC5)nc4)cc3c21` [Example 5.2, 8-(6-Azetidin-1-yl-pyridin-3-yl)-1-(1-isopropyl-3-methyl-1H-pyrazol-4-yl)-3-methyl-1,3-dihydro-imidazo[4,5-c]quinolin-2-one]: 34 nM, 13 nM and 5 nM.
`Cc1ccc(-c2ccc3ncc4c(c3c2)n(-c2cn(C)nc2C)c(=O)n4C)cn1` [Example 7.2, 1-(1,3-Dimethyl-1H-pyrazol-4-yl)-3-methyl-8-(6-methyl-pyridin-3-yl)-1,3-dihydro-imidazo[4,5-c]quinolin-2-one]: the IC50 came to 14 nM in assay [1], 34 nM in assay [2] and 13.5 nM in assay [3].
The matching figures for `COc1ccc(-c2ccc3ncc4[nH]c(=O)n(-c5cc(C)nn5C)c4c3n2)cc1OC` [Example 252, 8-(3,4-Dimethoxy-phenyl)-1-(2,5-dimethyl-2H-pyrazol-3-yl)-1,3-dihydro-1,3,5,9-tetraaza-cyclopenta[a]naphthalen-2-one]: 3 nM, 10 nM and 5 nM.
The matching figures for `CCn1cc(-n2c(=O)n(C)c3cnc4ccc(-c5cnc(OC)nc5OC)cc4c32)c(C)n1` [Example 234.1, 8-(2,4-Dimethoxy-pyrimidin-5-yl)-1-(1-ethyl-3-methyl-1H-pyrazol-4-yl)-3-methyl-1,3-dihydro-imidazo[4,5-c]quinolin-2-one]: 20 nM, 14 nM and 9 nM.
Taken in the same sequence, the figures for `CCN(C)c1cncc(-c2ccc3ncc4c(c3c2)n(-c2cn(C)nc2C)c(=O)n4C)c1` [Example 176, 1-(1,3-Dimethyl-1H-pyrazol-4-yl)-8-[5-(ethyl-methyl-amino)-pyridin-3-yl]-3-methyl-1,3-dihydro-imidazo[4,5-c]quinolin-2-one] were 17 nM, 15 nM and 2 nM.
As to `CCOc1cc(-c2ccc3ncc4c(c3c2)n(-c2cn(C)nc2C)c(=O)n4C)cnc1CO` [Example 243, 1-(1,3-Dimethyl-1H-pyrazol-4-yl)-8-(5-ethoxy-6-hydroxymethyl-pyridin-3-yl)-3-methyl-1,3-dihydro-imidazo[4,5-c]quinolin-2-one], the IC50 in assay [1] turned out to be 11 nM; in assay [2], 31 nM; in assay [3], 4 nM.
Turning to `Cc1nn(C(C)C)cc1-n1c(=O)n(C)c2cnc3ccc(-c4ccc(CO)nc4)cc3c21` [Example 16.3, 8-(6-hydroxymethyl-pyridin-3-yl)-1-(1-isopropyl-3-methyl-1H-pyrazol-4-yl)-3-methyl-1,3-dihydro-imidazo[4,5-c]quinolin-2-one], the IC50 was 59 nM in assay [1], 45 nM in assay [2] and 61 nM in assay [3].
The matching figures for `COc1ccc(-c2ccc3ncc4c(c3c2)n(-c2cn(CCO)nc2C)c(=O)n4C)cn1` [Example 103.1, 1-[1-(2-Hydroxy-ethyl)-3-methyl-1H-pyrazol-4-yl]-8-(6-methoxy-pyridin-3-yl)-3-methyl-1,3-dihydro-imidazo[4,5-c]quinolin-2-one]: 20 nM, 21 nM and 13 nM.
The matching figures for `CCN(CC)C(=O)Cn1cc(-n2c(=O)n(C)c3cnc4ccc(-c5ccc(C)nc5)cc4c32)c(C)n1` [Example 139, N,N-Diethyl-2-{3-methyl-4-[3-methyl-8-(6-methyl-pyridin-3-yl)-2-oxo-2,3-dihydro-imidazo[4,5-c]quinolin-1-yl]-pyrazol-1-yl}-acetamide]: 17 nM, 21 nM and 4 nM.
The matching figures for `CCNc1cc(-c2ccc3ncc4c(c3c2)n(-c2cn(CC)nc2C)c(=O)n4C)cnc1COC` [Example 157, 8-(5-Ethylamino-6-methoxymethyl-pyridin-3-yl)-1-(1-ethyl-3-methyl-1H-pyrazol-4-yl)-3-methyl-1,3-dihydro-imidazo[4,5-c]quinolin-2-one]: 7 nM, 10 nM and 1 nM.
Turning to `COc1cncc(-c2ccc3ncc4c(c3c2)n(-c2cn(C)nc2C)c(=O)n4C)c1` [Example 12, 1-(1,3-Dimethyl-1H-pyrazol-4-yl)-8-(5-methoxy-pyridin-3-yl)-3-methyl-1,3-dihydro-imidazo[4,5-c]quinolin-2-one], the IC50 turned out to be 8 nM in assay [1], 17 nM in assay [2] and 7 nM in assay [3].
